Laboratory results: patent US20250154180A1, “CRK-LIKE (CRKL) ADAPTOR PROTEIN INHIBITORS AND METHODS OF MAKING AND USING THE SAME” (Rutgers, The State University of New Jersey, priority 2022, published 2025)

Test system: 4T1 breast tumor
Experiment: 4T1-Luc orthotopic syngeneic breast tumor model
Format: in vivo, Balb/c mice
Conditions: 5.0 μg/g oral gavage
Text: Syngeneic orthotopic 4T1 breast tumor-bearing mouse model was established by inoculating 5×10^4 4T1-Luc cells mixed with Matrigel were into the left inguinal fat pad of Balb/c mice from Jackson Laboratories. This orthotopic syngeneic breast tumor model is a tool for preclinical testing of anti-cancer drugs or immunotherapy that require an intact immune system to elicit activity.
To test the effects of the disclosed compounds on the xenograft mouse models, the HCC-Sk-Hep1 cell line xenograft model in NSG mice and 4T1-Luc orthotopic syngeneic breast tumor model in Balb/c mice was used. After confirming the palpable tumor in NSG or Balb/c mice. […] Compound III is referred to as “NC5-140-1” and Compound I is referred to as “NC5-140-2” in FIGS. 11A-11C.

In the case of `CC(C)=CCc1c2c(c3occ(-c4ccc(O)c(O)c4)c(=O)c3c1O)C=CC(C)(C)O2` [Pomiferin, 3′,4′,5-Trihydroxy-6″,6″-dimethyl-6-(3-methylbut-2-en-1-yl)-6″H-pyrano[2″,3″:7,8]isoflavone], the tumor growth was “steady growth inhibition” and the median survival (vehicle 25 days) was 38.5 days.
